Tests used:
[1] = test system: human peripheral blood mononuclear cells (PBMC); experiment: T-cell proliferation assay (BrdU ELISA), PBMC stimulated with anti-CD3 mAb + anti-CD28 mAb; assay type: cell-based; details: anti-CD3 mAb (0.1 μg/ml)+anti-CD28 mAb (1 μg/ml); for inhibition at 0.03 µM: Homo sapiens, PBMC
[2] = test system: human peripheral blood mononuclear cells (PBMC); experiment: T-cell proliferation assay (BrdU ELISA), PBMC stimulated with SEB; assay type: cell-based; details: SEB (0.1 μg/ml); for inhibition at 0.03 µM: Homo sapiens, PBMC
[3] = Example 1, 200000 cells/well, HC 10 μM, ASM 30 nM, BETA 300 nM
[4] = Example 2, 100000 cells/well, HC 10 μM, ASM 30 nM, BETA 300 nM
[5] = Example 3, 50000 cells/well, HC 10 μM, ASM 30 nM, BETA 300 nM
[6] = Example 6, 200000 cells/well, DEX 300 nM, ASM 30 nM, BETA 300 nM
[7] = Example 7, 100000 cells/well, DEX 300 nM, ASM 30 nM, BETA 300 nM
[8] = Example 8, 50000 cells/well, DEX 300 nM, ASM 30 nM, BETA 300 nM
[9] = Example 11, 100000 cells/well, DEX 300 nM, ASM 30 nM
[10] = Example 4, 200000 cells/well, HC 10 μM, ASM 30 nM, BETA 300 nM
[11] = Example 5, 100000 cells/well, HC 10 μM, ASM 30 nM, BETA 300 nM
[12] = Example 9, 200000 cells/well, DEX 300 nM, ASM 30 nM, BETA 300 nM
[13] = Example 10, 100000 cells/well, DEX 300 nM, ASM 30 nM, BETA 300 nM
[14] = Example 12, 100000 cells/well, DEX 300 nM, ASM 30 nM
[15] = Example 13, 200000 cells/well, HC 10 μM, FK 30 nM, BETA 300 nM
[16] = Example 14, 100000 cells/well, HC 10 μM, FK 30 nM, BETA 300 nM
[17] = Example 15, 200000 cells/well, DEX 300 nM, FK 30 nM, BETA 300 nM
[18] = Example 16, 100000 cells/well, DEX 300 nM, FK 30 nM, BETA 300 nM
[19] = Example 17, 50000 cells/well, DEX 300 nM, FK 30 nM, BETA 300 nM
[20] = Example 19, 200000 cells/well, HC 10 μM, CsA 300 nM, BETA 300 nM, HC (10 μM)+CsA (30 nM), BETA (300 nM)+CsA (300 nM)
[21] = Example 20, 100000 cells/well, HC 10 μM, CsA 300 nM, BETA 300 nM, HC (10 μM)+CsA (30 nM), BETA (300 nM)+CsA (300 nM)
[22] = Example 21, 50000 cells/well, HC 10 μM, CsA 300 nM, BETA 300 nM, HC (10 μM)+CsA (30 nM), BETA (300 nM)+CsA (300 nM)
[23] = Example 23, 200000 cells/well, DEX 300 nM, CsA 300 nM, BETA 300 nM, DEX (300 nM)+CsA (30 nM), BETA (300 nM)+CsA (300 nM)
[24] = Example 24, 100000 cells/well, DEX 300 nM, CsA 300 nM, BETA 300 nM, DEX (300 nM)+CsA (30 nM), BETA (300 nM)+CsA (300 nM)
[25] = Example 25, 50000 cells/well, DEX 300 nM, CsA 300 nM, BETA 300 nM, DEX (300 nM)+CsA (30 nM), BETA (300 nM)+CsA (300 nM)
[26] = Example 22, 200000 cells/well, HC 10 μM, CsA 300 nM, BETA 300 nM, HC (10 μM)+CsA (30 nM), BETA (300 nM)+CsA (300 nM)
[27] = Example 26, 200000 cells/well, DEX 300 nM, CsA 300 nM, BETA 300 nM, DEX (300 nM)+CsA (30 nM), BETA (300 nM)+CsA (300 nM)
[28] = Example 18, 100000 cells/well, DEX 300 nM, FK 30 nM

## CC[C@@H]1/C=C(\C)C[C@H](C)C[C@H](OC)[C@H]2O[C@@](O)(C(=O)C(=O)N3CCCC[C@H]3C(=O)O[C@H](/C(C)=C/[C@@H]3CC[C@H](Cl)[C@H](OC)C3)[C@H](C)[C@@H](O)CC1=O)[C@H](C)C[C@@H]2OC [ASM, 33-epi-33-chloro-FR 520]
[1]; [3]
  Normalized OD (% STIM-C): 93.9 % STIM-C
  OD: 0.721
  inhibition at 0.03 µM: 6.7%
[1]; [4]
  Normalized OD (% STIM-C): 85.1 % STIM-C
  OD: 0.776
  inhibition at 0.03 µM: < 17%
[1]; [5]
  Normalized OD (% STIM-C): 113.2 % STIM-C
  OD: 0.994
  inhibition at 0.03 µM: -14.3%
[1]; [6]
  Normalized OD (% STIM-C): 98.0 % STIM-C
  OD: 0.772
[1]; [7]
  Normalized OD (% STIM-C): 87.4 % STIM-C
  OD: 0.734
  inhibition at 0.03 µM: < 25%
[1]; [8]
  Normalized OD (% STIM-C): 86.2 % STIM-C
  OD: 0.908
  inhibition at 0.03 µM: < 26%
[1]; [9]
  Normalized OD (% STIM-C): 79.1 % STIM-C
  OD: 0.918
  inhibition at 0.03 µM: < 25%
[2]; [10]
  Normalized OD (% STIM-C): 95.8 % STIM-C
  OD: 1.015
[2]; [11]
  Normalized OD (% STIM-C): 78.1 % STIM-C
  OD: 0.665
  inhibition at 0.03 µM: < 24%
[2]; [12]
  Normalized OD (% STIM-C): 83.1 % STIM-C
  OD: 0.752
  inhibition at 0.03 µM: < 19%
[2]; [13]
  Normalized OD (% STIM-C): 67.3 % STIM-C
  OD: 0.660
  inhibition at 0.03 µM: < 34%
[2]; [14]
  Normalized OD (% STIM-C): 77.5 % STIM-C
  OD: 1.013
  inhibition at 0.03 µM: < 24%

## CCCCC(=O)O[C@]1(C(=O)CO)[C@@H](C)C[C@H]2[C@@H]3CCC4=CC(=O)C=C[C@]4(C)[C@@]3(F)[C@@H](O)C[C@@]21C [BETA, betamethasone 17-valerate]
[1]; [3]
  Normalized OD (% STIM-C): 105.2 % STIM-C
  OD: 0.808
[1]; [4]
  Normalized OD (% STIM-C): 87.3 % STIM-C
  OD: 0.796
[1]; [5]
  Normalized OD (% STIM-C): 99.4 % STIM-C
  OD: 0.873
[1]; [6]
  Normalized OD (% STIM-C): 89.2 % STIM-C
  OD: 0.703
[1]; [7]
  Normalized OD (% STIM-C): 82.4 % STIM-C
  OD: 0.692
[1]; [8]
  Normalized OD (% STIM-C): 75.4 % STIM-C
  OD: 0.794
[1]; [15]
  Normalized OD (% STIM-C): 105.2 % STIM-C
  OD: 0.808
[1]; [16]
  Normalized OD (% STIM-C): 87.3 % STIM-C
  OD: 0.796
[1]; [17]
  Normalized OD (% STIM-C): 89.2 % STIM-C
  OD: 0.703
[1]; [18]
  Normalized OD (% STIM-C): 82.4 % STIM-C
  OD: 0.692
[1]; [19]
  Normalized OD (% STIM-C): 75.4 % STIM-C
  OD: 0.794
[1]; [20]
  Normalized OD (% STIM-C): 105.2 % STIM-C
  OD: 0.808
[1]; [21]
  Normalized OD (% STIM-C): 87.3 % STIM-C
  OD: 0.796
[1]; [22]
  Normalized OD (% STIM-C): 99.4 % STIM-C
  OD: 0.873
[1]; [23]
  Normalized OD (% STIM-C): 89.2 % STIM-C
  OD: 0.703
[1]; [24]
  Normalized OD (% STIM-C): 82.4 % STIM-C
  OD: 0.692
[1]; [25]
  Normalized OD (% STIM-C): 75.4 % STIM-C
  OD: 0.794
[2]; [10]
  Normalized OD (% STIM-C): 85.0 % STIM-C
  OD: 0.900
[2]; [11]
  Normalized OD (% STIM-C): 117.6 % STIM-C
  OD: 1.001
[2]; [12]
  Normalized OD (% STIM-C): 99.7 % STIM-C
  OD: 0.902
[2]; [13]
  Normalized OD (% STIM-C): 97.4 % STIM-C
  OD: 0.955
[2]; [26]
  Normalized OD (% STIM-C): 85.0 % STIM-C
  OD: 0.900
[2]; [27]
  Normalized OD (% STIM-C): 99.7 % STIM-C
  OD: 0.902

## C=CC[C@@H]1/C=C(\C)C[C@H](C)C[C@H](OC)[C@H]2O[C@@](O)(C(=O)C(=O)N3CCCC[C@H]3C(=O)O[C@H](/C(C)=C/[C@@H]3CC[C@@H](O)[C@H](OC)C3)[C@H](C)[C@@H](O)CC1=O)[C@H](C)C[C@@H]2OC [FK, tacrolimus]
[1]; [15]
  Normalized OD (% STIM-C): 119.9 % STIM-C
  OD: 0.921
  inhibition at 0.03 µM: -21.9%
[1]; [16]
  Normalized OD (% STIM-C): 72.6 % STIM-C
  OD: 0.662
  inhibition at 0.03 µM: < 31%
[1]; [17]
  Normalized OD (% STIM-C): 100.9 % STIM-C
  OD: 0.795
[1]; [18]
  Normalized OD (% STIM-C): 96.3 % STIM-C
  OD: 0.809
[1]; [19]
  Normalized OD (% STIM-C): 79.6 % STIM-C
  OD: 0.838
  inhibition at 0.03 µM: < 26%
[1]; [28]
  Normalized OD (% STIM-C): 78.0 % STIM-C
  OD: 0.905
  inhibition at 0.03 µM: < 25%
